Consider 39 compounds from US12129221B2, “Difluoro phenyl amide RIP1 inhibitor” (SIRONAX LTD, priority 2018, dated 2024).

The subject of one data set is ferroptosis. The data set can be described thus: Ferroptosis inhibitor activity. In kind it is cell-based. Conditions: 1 uM threshold activity extrapolated. The source says:
Ferroptosis Inhibitor Activity 1 Um Threshold Activity Extrapolated

Another data set relates to necrosis. The data set can be described thus: Necrosis inhibitory activity (cell necrosis / cell viability assay). Particulars: read-out: EC50. In kind it is cell-based. The text has this: Necrosis Inhibitory Activity
Representative IC50 of hRIP1 Kinase Assay Correlated with Our IC50 of Cell Necrosis Assay: […]

Data set [1] can be described thus: Prodrug enhanced metabolic stability: hepatocyte (H). Details: key: +, Extrapolated. In kind it is in vitro ADME. The text has this:
(§1) Prodrug Enhanced Metabolic Stability: Liver Microsome (L), Hepatocyte (H) and PK

The nature of data set [2]: Prodrug enhanced metabolic stability: PK. In kind it is in vivo. Details: key: +, Extrapolated.
From the text: as §1

Data set [3] is described as follows: Prodrug enhanced metabolic stability: liver microsome (L). In kind it is in vitro ADME. Set-up: key: +, Extrapolated.
From the text: as §1
On the technique in general: Microsomes from liver hold many membrane-bound enzymes, among them those of drug oxidation.

Setting [4] is: Necrosis Inhibitory Activity, given as range.

SMILES strings stand for the structures. Like-named read-outs stand apart in the source and are kept apart here.

In general, EC50 refers to the concentration needed to bring the measured effect to its halfway point. Turning to `CCC(C)(C)C(=O)N(O)Cc1sccc1C` [Compound 22, N-hydroxy-2,2-dimethyl-N-((3-methylthiophen-2-yl)methyl)butanamide], the EC50 with ferroptosis and in the data set on necrosis (setting [4]) was 1000 to 10000 nM in each case.

Turning to `CCC(C)(C)C(=O)N(O)Cc1cccc(F)c1` [Compound 2, N-(3-fluorobenzyl)-N-hydroxy-2,2-dimethylbutanamide], the EC50 is 1000 to 10000 nM in the data set on ferroptosis and 1 to 1000 nM in the data set on necrosis (setting [4]).

Take `CCC(C)(C)C(=O)N(O)Cc1cc(C)c(C)s1` [Compound 21, N-((4,5-dimethylthiophen-2-yl)methyl)-N-hydroxy-2,2-dimethylbutanamide]: the EC50 in the data set on ferroptosis was 1000 to 10000 nM; in the data set with necrosis (setting [4]), 1 to 1000 nM.

With `CCC(C)(C)C(=O)N(Cc1ccccc1)OC(=O)C(C)(C)C` [Compound 77, N-benzyl-2,2-dimethyl-N-(pivaloyloxy)butanamide], in the data set with necrosis (Active Pro-drugs), the EC50 was 6830 nM. In data set [1], the H result is “+”. Further, the PK entry in data set [2] is “+”. Moreover, the L entry in data set [3] is recorded as “+”.

With `CCOC(=O)ON(Cc1cc(F)cc(F)c1)C(=O)C(C)(C)CC` [Compound 87, N-(3,5-difluorobenzyl)-N-((ethoxycarbonyl)oxy)-2,2-dimethylbutanamide], the EC50 in the data set on necrosis (Active Pro-drugs) was 67.8 nM. In addition, the H result in data set [1] is “+”. Further, in data set [2], the PK entry is “+”. Besides, in data set [3], the L entry is on record as “+”.

`CC(C)(C(=O)N(O)Cc1cc(F)c(F)c(F)c1)C(F)(F)F` [Compound 46, 3,3,3-trifluoro-N-hydroxy-2,2-dimethyl-N-(3,4,5-trifluorobenzyl)propenamide]: the EC50 in the data set with ferroptosis and in the data set on necrosis (setting [4]) was 1000 to 10000 nM in each case.

As to `O=C(N(O)Cc1ccccc1)C1(C(F)(F)F)CCCC1` [Compound 34, N-benzyl-N-hydroxy-1-(trifluoromethyl)cyclopentane-1-carboxamide], the values for the EC50 with ferroptosis and in the data set on necrosis (setting [4]) were 1000 to 10000 nM and 1 to 1000 nM, respectively.

Regarding `CCC(C)(C)C(=O)N(O)Cc1c(F)c(F)c(F)c(F)c1F` [Compound 11, N-hydroxy-2,2-dimethyl-N-((perfluorophenyl)methyl)butanamide], the 50% effective concentration (EC50) in the data set on ferroptosis and in the data set with necrosis (setting [4]) was 1000 to 10000 nM throughout.

Take `CCC(C)(C)C(=O)N(O)Cc1ccccc1F` [Compound 1, N-(2-fluorobenzyl)-N-hydroxy-2,2-dimethylbutanamide]: the EC50 with ferroptosis was 1000 to 10000 nM; in the data set on necrosis (setting [4]) it was 1 to 1000 nM.

Take `CC(C)(C(=O)N(O)Cc1cccs1)C(F)(F)F` [Compound 49, 3,3,3-trifluoro-N-hydroxy-2,2-dimethyl-N-(thiophen-2-ylmethyl)propanamide]: the results for the EC50 with ferroptosis and in the data set on necrosis (setting [4]) were 1000 to 10000 nM and 1 to 1000 nM, respectively.

`[2H]c1c([2H])c([2H])c(C([2H])([2H])N(O)C(=O)C(C)(C)CC)c([2H])c1[2H]` [Compound 30, N-hydroxy-2,2-dimethyl-N-((phenyl-d5)methyl-d2)butanamide]: the EC50 with ferroptosis is 1000 to 10000 nM; in the data set on necrosis (setting [4]), 1 to 1000 nM.

Turning to `CC(C)(C(=O)N(O)Cc1ccccc1)C(F)(F)F` [Compound 6, N-benzyl-3,3,3-trifluoro-N-hydroxy-2,2-dimethylpropanamide], the EC50 with ferroptosis is 1000 to 10000 nM; in the data set with necrosis (setting [4]), 1 to 1000 nM.

Regarding `CC(C)(C(=O)N(O)Cc1ccc(F)cc1)C(F)(F)F` [Compound 43, 3,3,3-trifluoro-N-(4-fluorobenzyl)-N-hydroxy-2,2-dimethylpropanamide], the EC50 in the data set on ferroptosis is 1000 to 10000 nM; with necrosis (setting [4]), 1 to 1000 nM.

In the case of `CCC(C)(C)C(=O)N(O)Cc1cccc(F)c1F` [Compound 9, N-(2,3-difluorobenzyl)-N-hydroxy-2,2-dimethylbutanamide], the values for the EC50 with ferroptosis and in the data set with necrosis (setting [4]) were 1000 to 10000 nM and 1 to 1000 nM, respectively.

`O=C(C1CCCCC1)N(O)Cc1ccccc1` [Compound 37, N-benzyl-N-hydroxycyclohexanecarboxamide]: the EC50 with ferroptosis and with necrosis (setting [4]) was 1000 to 10000 nM in each case.

Consider `CCC(C)(C)C(=O)N(O)CC1=CCCCC1` [Compound 25, N-(cyclohex-1-en-1-ylmethyl)-N-hydroxy-2,2-dimethylbutanamide], for which the values for the EC50 with ferroptosis and with necrosis (setting [4]) were 1000 to 10000 nM and 1 to 1000 nM, respectively.

For `CCC1(C(=O)N(O)Cc2ccc(F)cc2)CC1` [Compound 39, 1-ethyl-N-(4-fluorobenzyl)-N-hydroxycyclopropane-1-carboxamide], the figures for the concentration giving a half-maximal response (EC50) in the data set with ferroptosis and in the data set on necrosis (setting [4]) were 1000 to 10000 nM and 1000 to 100000 nM, respectively.

Regarding `Cc1cc(CN(O)C(=O)C(C)(C)C(F)(F)F)sc1C` [Compound 47, N-((4,5-dimethylthiophen-2-yl)methyl)-3,3,3-trifluoro-N-hydroxy-2,2-dimethylpropanamide], the figures for the concentration giving a half-maximal response (EC50) in the data set with ferroptosis and with necrosis (setting [4]) were 1000 to 10000 nM and 1 to 1000 nM, respectively.

As to `CC(C)(C(=O)N(O)Cc1ccc(Br)cc1)C(F)(F)F` [Compound 42, N-(4-bromobenzyl)-3,3,3-trifluoro-N-hydroxy-2,2-dimethylpropanamide], the EC50 in the data set with ferroptosis is 1000 to 10000 nM; with necrosis (setting [4]), 1 to 1000 nM.

In the case of `CC(C)(C(=O)N(O)Cc1ccc(Cl)cc1)C(F)(F)F` [Compound 44, N-(4-chlorobenzyl)-3,3,3-trifluoro-N-hydroxy-2,2-dimethylpropanamide], the concentration giving a half-maximal response (EC50) was 1000 to 10000 nM in the data set with ferroptosis and 1 to 1000 nM with necrosis (setting [4]).

For the compound `CCC(C)(C)C(=O)N(O)Cc1cc(F)ccc1F` [Compound 14, N-(2,5-difluorobenzyl)-N-hydroxy-2,2-dimethylbutanamide], the EC50 in the data set on ferroptosis is 1000 to 10000 nM; in the data set on necrosis (setting [4]), 1 to 1000 nM.

Turning to `CCC(C)(C)C(=O)N(O)Cc1ccc(Br)cc1` [Compound 18, N-(4-bromobenzyl)-N-hydroxy-2,2-dimethylbutanamide], the concentration giving a half-maximal response (EC50) in the data set with ferroptosis was 1000 to 10000 nM; in the data set on necrosis (setting [4]), 1 to 1000 nM.

Take `O=C(C1CCN(c2ncc(F)cn2)CC1)N(O)Cc1ccc(F)cc1` [Compound 85, N-(4-fluorobenzyl)-1-(5-fluoropyrimidin-2-yl)-N-hydroxypiperidine-4-carboxamide]: the EC50 with ferroptosis and with necrosis (setting [4]) was 1000 to 10000 nM throughout.

Turning to `CC1(C(C)(C)C(=O)N(O)Cc2ccccc2)CC1` [Compound 32, N-benzyl-N-hydroxy-2-methyl-2-(1-methylcyclopropyl) propanamide], the EC50 was 1000 to 10000 nM in the data set on ferroptosis and 1 to 1000 nM in the data set on necrosis (setting [4]).

For the compound `CCC(C)(C)C(=O)N(O)Cc1ccccn1` [Compound 8, N-hydroxy-2,2-dimethyl-N-(pyridin-2-ylmethyl)butanamide], the concentration for a half-maximal effect (EC50) in the data set on ferroptosis and with necrosis (setting [4]) was 1000 to 10000 nM throughout.

As for `CCC(C)(C)C(=O)N(O)Cc1cc(F)cc(C#N)c1` [Compound 12, N-(3-cyano-5-fluorobenzyl)-N-hydroxy-2,2-dimethylbutanamide], the 50% effective concentration (EC50) in the data set with ferroptosis was 1000 to 10000 nM; with necrosis (setting [4]) it was 1 to 1000 nM.

Turning to `O=C(C1CCCC1)N(O)Cc1ccccc1` [Compound 33, N-benzyl-N-hydroxycydopentanecarboxamide], the EC50 with ferroptosis and with necrosis (setting [4]) was 1000 to 10000 nM each time.

With `CC1(C(=O)N(O)Cc2ccccc2)CCCCC1` [Compound 36, N-benzyl-N-hydroxy-1-methylcyclohexane-1-carboxamide], the EC50 in the data set on ferroptosis was 1000 to 10000 nM; in the data set on necrosis (setting [4]), 1 to 1000 nM.

`[2H]CC([2H])C(C)(C)C(=O)N(O)C([2H])([2H])c1c([2H])c([2H])c([2H])c([2H])c1[2H]` (stereo not shown) [Compound 31, N-hydroxy-2,2-dimethyl-N-((phenyl-d5)methyl-d2)butanamide-3,4-d2]: the concentration for a half-maximal effect (EC50) in the data set on ferroptosis is 1000 to 10000 nM; in the data set with necrosis (setting [4]), 1 to 1000 nM.

With `CCC(C)(C)C(=O)N(O)Cc1ccccc1Cl` [Compound 3, N-(2-chlorobenzyl)-N-hydroxy-2,2-dimethylbutanamide], the EC50 in the data set with ferroptosis was 1000 to 10000 nM; with necrosis (setting [4]) it was 1 to 1000 nM.

Consider `CCC(C)(C)C(=O)N(O)Cc1cccc(Cl)c1` [Compound 4, N-(3-chlorobenzyl)-N-hydroxy-2,2-dimethylbutanamide], for which the EC50 was 1000 to 10000 nM with ferroptosis and 1 to 1000 nM with necrosis (setting [4]).

Turning to `CCC(C)(C)C(=O)N(O)Cc1cccc(Br)c1` [Compound 5, N-(3-bromobenzyl)-N-hydroxy-2,2-dimethylbutanamide], the values for the EC50 in the data set with ferroptosis and in the data set with necrosis (setting [4]) were 1000 to 10000 nM and 1 to 1000 nM, respectively.

`CCC(C)(C)C(=O)N(O)Cc1cc(F)cc(Cl)c1` [Compound 17, N-(3-chloro-5-fluorobenzyl)-N-hydroxy-2,2-dimethylbutanamide]: the values for the EC50 in the data set with ferroptosis and in the data set with necrosis (setting [4]) were 1000 to 10000 nM and 1 to 1000 nM, respectively.

For `CCC1(C(=O)N(O)Cc2cc(F)cc(F)c2)CC1` [Compound 41, N-(3,5-difluorobenzyl)-1-ethyl-N-hydroxycyclopropane-1-carboxamide], the EC50 in the data set on ferroptosis and in the data set on necrosis (setting [4]) was 1000 to 10000 nM each time.

Consider `CCC(C)(C)C(=O)N(O)Cc1c(F)cc(F)cc1F` [Compound 10, N-hydroxy-2,2-dimethyl-N-(2,4,6-trifluorobenzyl)butanamide], for which the concentration for a half-maximal effect (EC50) with ferroptosis and in the data set with necrosis (setting [4]) was 1000 to 10000 nM in each case.

As for `CC(C)(C)C(=O)N(O)Cc1ccccc1` [Compound 7, N-benzyl-N-hydroxypivalamide], the EC50 in the data set with ferroptosis was 1000 to 10000 nM; with necrosis (setting [4]), 1 to 1000 nM.

In the case of `CC(C)(C(=O)N(O)Cc1cc(F)cc(F)c1)C(F)(F)F` [Compound 45, N-(3,5-difluorobenzyl)-3,3,3-trifluoro-N-hydroxy-2,2-dimethylpropanamide], the EC50 in the data set on ferroptosis is 1000 to 10000 nM; in the data set with necrosis (setting [4]), 1 to 1000 nM.

Consider `[2H]C([2H])C([2H])([2H])C(C)(C)C(=O)N(O)Cc1ccc(F)cc1` [Compound 29, N-(4-fluorobenzyl)-N-hydroxy-2,2-dimethylbutanamide-3,3,4,4-d4], for which the values for the 50% effective concentration (EC50) in the data set with ferroptosis and in the data set on necrosis (setting [4]) were 1000 to 10000 nM and 1 to 1000 nM, respectively.

`CCC1(C(=O)N(O)Cc2ccc(Cl)cc2)CC1` [Compound 40, N-(4-chlorobenzyl)-1-ethyl-N-hydroxycyclopropane-1-carboxamide]: the EC50 with ferroptosis and in the data set with necrosis (setting [4]) was 1000 to 10000 nM throughout.
